In patent EP0185961A2, “1-Phenyl-imidazole-5-carboxylic acid derivatives, process for their preparation and their use as growth regulators” (HOECHST AKTIENGESELLSCHAFT, priority 1984, dated 1986):
Like-named read-outs stand apart in the source and are kept apart here.

Columns and labels:
Roggen = assay: Growth inhibition in cereals, greenhouse tray test, sprayed at 3-leaf stage; type: in vivo; settings: % of growth increment of untreated controls; for pest or weed control at 1250 g/ha / pest or weed control at 2500 g/ha: read-out: Wuchsshemmung in % bei Roggen
Description: (§1) In Schalenversuchen im Gewächshaus werden junge Getreidepflanzen (Weizen, Gerste, Roggen) im 3-Blattstadium mit erfindungsgemäßen Verbindungen in verschiedenen Wirkstoffkonzentrationen (kg/ha) tropfnaß gespritzt. […]

Weizen = assay: as above; type: in vivo; settings: % of growth increment of untreated controls (100% = growth standstill); for pest or weed control at 1250 g/ha / pest or weed control at 2500 g/ha: read-out: Wuchsshemmung in % bei Weizen
Description: as §1

Gerste = assay: as above; type: in vivo; settings: % of growth increment of untreated controls; for pest or weed control at 1250 g/ha / pest or weed control at 2500 g/ha: read-out: Wuchsshemmung in % bei Gerste
Description: (§2) In Schalenversuchen im Gewächshaus werden junge Getreidepflanzen (Weizen, Gerste, Roggen) im 3-Blattstadium mit erfindungsgemäßen Verbindungen in verschiedenen Wirkstoffkonzentrationen (kg/ha) tropfnaß gespritzt.
(§3) Es wird außerdem die phytotoxische Wirkung der Verbindung beobachtet.

[1] = system: Getreidepflanzen (Weizen, Gerste, Roggen); assay: Phytotoxic effect observed in the cereal growth inhibition test; type: in vivo; settings: cereals; one cell for 2,5 and 1,25 kg/ha
Description: as §2, §3

Reispflanzen [2] = settings: in vivo
Description: (§4) Reispflanzen werden in Kleinparzellen (2 m x 2 m) angezogen und im Stadium der maximalen Bestockung mit erfindungsgemäßen Verbindungen behandelt. Die Substanzen werden sowohl durch Spritzung appliziert als auch in das Wasser gegeben.
(§5) 3 Wochen nach der Behandlung wird bei allen Pflanzen der Zuwachs gemessen und die Wuchshemmung in % des Zuwachses der Kontrollpflanzen berechnet. Es wird außerdem auf eine mögliche phytotoxische Wirkung der Verbindungen geachtet.
(§6) Die Wuchshemmung wird als prozentualer Wert ermittelt, wobei 100% den Stillstand des Wachstums und 0% ein Wachstum entsprechend dem der unbehandelten Kontrollpflanzen bedeuten.

Sojabohnen [3] = settings: in vivo
Description: (§7) Etwa 10 cm große Sojabohnen werden mit den Wirkstoffzubereitungen tropfnaß bespritzt. Nach 3 Wochen wird bonitiert.
as §6

Sojabohnen [4] = assay: Growth inhibition in soybeans; settings: for pest or weed control at 2500 g/ha: Glycine max, 504 h, read-out: Wuchsshemmung (%); for Phytotox. Wirkung: soybeans, 2,5 kg/ha
Description: as §7, §6

Reispflanzen [5] = assay: Growth inhibition in paddy rice, small plots; settings: for pest or weed control at 620 g/ha / pest or weed control at 1250 g/ha: Oryza sativa, 504 h, read-out: Wuchsshemmung (%); for Phytotox. Wirkung: paddy rice, one cell for 1,25 and 0,62 kg/ha
Description: as §4, §5, §6

Compound | Wuchsshemmung in % bei Roggen (Roggen; 1,25 kg/ha) | Wuchsshemmung in % bei Roggen (Roggen; 2,5 kg/ha) | Wuchsshemmung in % bei Weizen (Weizen; 1,25 kg/ha) | Wuchsshemmung in % bei Weizen (Weizen; 2,5 kg/ha) | Wuchsshemmung in % bei Gerste (Gerste; 1,25 kg/ha) | Wuchsshemmung in % bei Gerste (Gerste; 2,5 kg/ha) | Phytotox. Wirkung [1] | pest or weed control at 1250 g/ha (Roggen; 1,25 kg/ha) | pest or weed control at 2500 g/ha (Roggen; 2,5 kg/ha) | pest or weed control at 1250 g/ha (Weizen; 1,25 kg/ha) | pest or weed control at 2500 g/ha (Weizen; 2,5 kg/ha) | pest or weed control at 1250 g/ha (Gerste; 1,25 kg/ha) | pest or weed control at 2500 g/ha (Gerste; 2,5 kg/ha) | Phytotox. Wirkung (Reispflanzen [2]) | Phytotox. Wirkung (Sojabohnen [3]) | pest or weed control at 2500 g/ha (Sojabohnen [4]) | pest or weed control at 620 g/ha (Reispflanzen [5]) | pest or weed control at 1250 g/ha (Reispflanzen [5]) | Phytotox. Wirkung (Sojabohnen [4]) | Phytotox. Wirkung (Reispflanzen [5])
2-Chlorethyltriethylammoniumchlorid [reference compound] | 0% | 10% | 23% | 27% | 0% | 8% | keine Schäden | – | – | – | – | – | – | – | – | – | – | – | – | –
CCc1cccc(CC)c1-n1cncc1C(=O)ON1C(=O)c2ccccc2C1=O [Beispiel 2, Pthalimido-1-(2,6-diethylphenyl)-imidazol-5-carboxylat] | – | – | – | – | – | – | keine Schäden | 21% | 27% | 12% | 23% | 18% | 37% | keine Schäden | keine Schäden | 20% | 25% | 22% | – | –
CCc1cccc(CC)c1-n1cncc1C(=O)NCCO [Beispiel 3, N-(2-Hydroxyethyl)-1-(2,6-diethylphenyl)-imidazol-5-carb-oxyamid] | – | – | – | – | – | – | keine Schäden | 20% | 26% | 13% | 22% | 17% | 35% | keine Schäden | keine Schäden | 21% | 16% | 21% | – | –
CCc1cccc(CC)c1-n1cncc1C(=O)OCSC [Beispiel 4, Methylthiomethyl-1-(2,6-diethylphenyl)-imidazol-5-carboxylat] | – | – | – | – | – | – | keine Schäden | 20% | 26% | 14% | 21% | 17% | 34% | – | – | 21% | 16% | 21% | keine Schäden | keine Schäden
CCc1cccc(CC)c1-n1cncc1-c1nnn[nH]1 [Beispiel 5, 1-(2,6-Diethylphenyl)-5-(5-tetrazolyl)-imidazol] | – | – | – | – | – | – | keine Schäden | 9% | 21% | 9% | 18% | 13% | 30% | keine Schäden | keine Schäden | 18% | 11% | 19% | – | –
CCc1cccc(CC)c1-n1cncc1C1=NC(C)(C)CO1 [Beispiel 6, 1-(2,6-Diethylphenyl)-5-(4,4-dimethyl-2-oxazolin-2-yl)-imidazol] | – | – | – | – | – | – | keine Schäden | 9% | 17% | 8% | 17% | 13% | 25% | keine Schäden | keine Schäden | 19% | 11% | 18% | – | –
CCc1cccc(CC)c1-n1cncc1-c1nc(C)no1 [Beispiel 7, 1-(2,6-Diethylphenyl)-5-(3-methyl-1,2,4-oxdiazol-5-yl)-imidazol] | – | – | – | – | – | – | keine Schäden | 21% | 28% | 15% | 24% | 19% | 39% | keine Schäden | keine Schäden | 26% | 15% | 24% | – | –
CCc1cccc(CC)c1-n1cncc1C(N)=NO [Beispiel 8, 1-(2,6-Diethylphenyl)-imidazol-5-carboxamidoxim] | – | – | – | – | – | – | keine Schäden | 17% | 25% | 12% | 22% | 18% | 34% | keine Schäden | keine Schäden | 21% | 12% | 22% | – | –
CCc1cccc(CC)c1-n1cncc1CO [Beispiel 12, 1-(2,6-Diethylphenyl)-5-hydroxymethyl-imidazol] | – | – | – | – | – | – | keine Schäden | 17% | 24% | 11% | 23% | 17% | 33% | keine Schäden | keine Schäden | 21% | 13% | 21% | – | –
CCc1cccc(CC)c1-n1cncc1C=O [Beispiel 13, 1-(2,6-Diethylphenyl)-5-formyl-imidazol] | – | – | – | – | – | – | keine Schäden | 19% | 27% | 15% | 24% | 19% | 37% | keine Schäden | keine Schäden | 25% | 16% | 24% | – | –
CCc1cccc(CC)c1-n1cncc1C=NO [Beispiel 14, 1-(2,6-Diethylphenyl)-5-hydroximinomethyl-imidazol] | – | – | – | – | – | – | keine Schäden | 13% | 24% | 11% | 19% | 16% | 32% | – | – | 20% | 13% | 21% | keine Schäden | keine Schäden
CCc1cccc(CC)c1-n1cncc1C(=O)OC1CCCCC1 [Beispiel 36] | – | – | – | – | – | – | keine Schäden | 13% | 23% | 10% | 19% | 17% | 33% | keine Schäden | keine Schäden | 19% | 14% | 21% | – | –
C#CCOC(=O)c1cncn1-c1c(CC)cccc1CC [Beispiel 37] | – | – | – | – | – | – | keine Schäden | 7% | 19% | 8% | 15% | 12% | 25% | – | – | 17% | 11% | 19% | keine Schäden | keine Schäden
